The source made the active and inactive calls. The rule behind the calls is not given here.
These molecules were tested against glucose-6-phosphate dehydrogenase-6-phosphogluconolactonase (Plasmodium falciparum 3D7) (assay: PfG6PD enzyme inhibitors, kinetic NADPH readout, dose response, orthogonal assay, biochemical, kinetic NADPH detection (AID 540269)). Settings: purified PfG6PD-6PGL.

SMILES	IC50
Cc1nc2ccc(Nc3nc4cc(S(=O)(=O)N5CCOCC5)ccc4o3)cc2s1	> 80 µM (inactive)
CCC(C)(C)c1nnc(NC(=O)C2CCN(C(=O)c3ccco3)CC2)s1	> 80 µM (inactive)
CNS(=O)(=O)c1ccc(-c2ccc(C=C3C(=O)NC(=O)NC3=O)o2)cc1	33.6 µM
OCCN1CCN(C(=S)c2ccc(Cl)c(Cl)c2)CC1	> 80 µM (inactive)
c1cc2c(cc1NC1CCCCCC1)OCO2	> 80 µM (inactive)
CN(C)c1ccc(C=c2c3ccccc3n3c2c2ccccc2[n+]3C)cc1	32.8 µM
Cc1ccc(S(=O)(=O)/N=C2/C=C(C3C(=O)CC(C)(C)CC3=O)C(=O)c3ccccc32)cc1	> 80 µM (inactive)
Cc1cccc(C(=O)Nc2nnc(S(=O)(=O)N3CCCCCC3)s2)c1	16.9 µM
O=C1C=CC(=O)N1c1ccc2c(c1)C(NC(=O)C(F)(F)F)c1ccccc1-2 (centres undefined)	> 80 µM (inactive)
Cc1ccc(CNc2ccc(O)cc2)cc1	45.1 µM
O=c1[nH]c2ccccc2n2c(-c3ccccc3)nnc12	13.2 µM
Nc1ccc(S(=O)(=O)c2cc(O)c3ccccc3c2O)cc1	> 80 µM (inactive)
O=c1c2ccccc2sn1-c1cc(S(=O)(=O)N2CCOCC2)ccc1N1CCCC1	12.5 µM
COc1ccc(NC2CCCN(Cc3cccc4cnccc34)C2)cc1OC (centres undefined)	> 80 µM (inactive)
COc1cc(Sc2ccc(C)cc2)c(OC)cc1N	> 80 µM (inactive)
CCN1CCN(C(=S)c2ccc(O)cc2)CC1	> 80 µM (inactive)
O=C(O)c1cc(N2C(=O)C=CC2=O)cc(N2C(=O)C=CC2=O)c1	19.6 µM
CCN1CCCC1CNC(=O)c1ccc2c(c1)NC(=O)/C(=C\c1ccccc1F)S2 (centres undefined)	8.64 µM
CCOc1ccccc1CNc1ccc(O)cc1	46.7 µM
N#Cc1ccc2sn(-c3ccccc3)c(=O)c2c1	14.8 µM
N#Cc1ccc2c(=O)n(-c3ccccc3)sc2c1	39.6 µM
O=[N+]([O-])c1ccc(-[n+]2ccc3ccccc3c2)c([N+](=O)[O-])c1	> 80 µM (inactive)
COc1ccc(N2C(=O)/C(=C/c3cccs3)NC2=S)cc1	40.2 µM
Cc1cc(C)c2c(=N)c3ccccc3n(CCCCCCCCn3c4ccccc4c(=N)c4c(C)cc(C)nc43)c2n1	50.3 µM
CC(C)Sc1nnc(NC(=O)c2ccc3c(c2)OCO3)s1	29.5 µM
CCC(CO)[n+]1c(C)cc(/C=C2\Sc3ccccc3N2Cc2ccccc2)cc1C (centres undefined)	24.3 µM
COc1ccc(Cl)cc1NC(=O)c1cccc([N+](=O)[O-])c1O	> 80 µM (inactive)

SMILES	IC50
CCN1CCN(C(=S)c2ccc(Cl)c(Cl)c2)CC1	> 80 µM (inactive)
COc1cc(CN2CCCC(C(=O)c3ccc4c5c(cccc35)CC4)C2)cc(OC)c1O (centres undefined)	28.4 µM
Cc1ccc(/C=C/C(=O)N2CCN(S(=O)(=O)c3ccc(C)c(C)c3)CC2)o1	> 80 µM (inactive)
COc1ccccc1NS(=O)(=O)c1cc(NC(=O)c2ccc(Cl)nc2)ccc1N1CCCC1	32.1 µM
O=C(O)CSc1cc(NS(=O)(=O)c2cccc([N+](=O)[O-])c2)c2ccccc2c1O	> 80 µM (inactive)
COc1ccc(NS(=O)(=O)c2ccc(N3CCCC3)c(NC(=S)Nc3cccc(C)c3C)c2)cc1	> 80 µM (inactive)
Cc1cc(C)c2c(=O)n(CC(=O)N3CCC(N4CCCCC4)CC3)sc2n1	48.4 µM
Cn1c(=O)c2[nH]c(-c3ccccc3)c(O)c2n(C)c1=O	> 80 µM (inactive)
CC(Cc1ccc(O)c(O)c1)C(C)Cc1ccc(O)c(O)c1 (centres undefined)	54.9 µM
CCNc1nc(NC(C)C)nc(NS(=O)(=O)c2ccc(Cl)cc2)n1	> 80 µM (inactive)
Cc1cc(O)c(C(C)C)cc1N=Cc1ccc(N(C)C)cc1	> 80 µM (inactive)
CN(C)c1ccc(Cc2cc3c(O)ccc(O)c3cc(Cc3ccc(N(C)C)cc3)c2=O)cc1	54.7 µM
CN(CCO)c1cc(Sc2nc3ccccc3s2)c2nonc2c1[N+](=O)[O-]	> 80 µM (inactive)
COc1ccc(NC(C)C(=O)N/N=C/c2cc(Br)ccc2OC)cc1 (centres undefined)	> 80 µM (inactive)
COc1cc(NCCCn2cnc3c(OCc4ccccc4)ncnc32)cc(OC)c1OC	> 80 µM (inactive)
COc1ccc(/C=C/c2nc3ccccc3n2C)cc1	17.7 µM
COc1cc(/C=N/Nc2nncn2N)ccc1OCc1c(C)no[n+]1[O-]	> 80 µM (inactive)
CC1N(C)c2cccc3cccc(c23)N1C	19.7 µM
C[C@]12CC[C@@H]3c4ccc(O)c(O)c4CC[C@H]3[C@@H]1CC[C@@H]2O	41.3 µM
CC(=O)Nc1cc(OC(C)=O)c2nonc2c1OC(C)=O	> 80 µM (inactive)
O=C(Nc1nc(-c2ccncc2)cs1)C1COc2ccccc2O1 (centres undefined)	22.4 µM
CC1CN(c2ccccc2)NC1=O (centres undefined)	> 80 µM (inactive)
CCCCC1C(=O)N(c2ccccc2)N(c2ccc(O)cc2)C1=O (centres undefined)	> 80 µM (inactive)
COc1cc(N)c2ncccc2c1SC	38.8 µM
O=c1c2ccccc2sn1-c1ccc(S(=O)(=O)N2CCCCC2)cc1	> 80 µM (inactive)
Cc1ccc(NC(=O)c2cc(N3C(=O)C=CC3=O)ccc2N2CCOCC2)cc1	> 80 µM (inactive)
C[C@H](NC(N)=O)C(=O)Nc1ccc(N2CCOCC2)c(S(=O)(=O)Nc2ccc(Cl)cc2)c1	> 80 µM (inactive)

— PubChem BioAssay AID540269 (Sanford-Burnham Center for Chemical Genomics, 2011)
